According to ChEMBL document CHEMBL1201862, “PubChem BioAssay data set” (2004):
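Test compounds were applied to cells in 96-well plates for 48 hours at 5 doses. Abbreviation: GI50, concentration required for 50% inhibition of growth.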 Activity calls are given as the source filed them. No stated cut-off is given here; in the data, active = GI50 up to about 1.1 µM and inactive = higher.

What was measured:
Assay in all cases: NCI anticancer screen, dose series, 48 h
SNB-19 = test system: SNB-19
COLO 205 = test system: COLO 205
SK-OV-3 = test system: SK-OV-3
CCRF-CEM = test system: CCRF-CEM
SN12C = test system: SN12C
EKVX = test system: EKVX
SK-MEL-2 = test system: SK-MEL-2
MCF7 = test system: MCF7
SW-620 = test system: SW-620
MOLT-4 = test system: MOLT-4
NCI-H23 = test system: NCI-H23
SR = test system: SR
SK-MEL-5 = test system: SK-MEL-5
SF-295 = test system: SF-295
UACC-62 = test system: UACC-62
OVCAR-3 = test system: OVCAR-3
MDA-MB-435 = test system: MDA-MB-435
MDA-N = test system: MDA-N
HOP-92 = test system: HOP-92
MDA-MB-231 = test system: MDA-MB-231

SMILES | GI50 (SNB-19) | GI50 (COLO 205) | GI50 (SK-OV-3) | GI50 (CCRF-CEM) | GI50 (SN12C) | GI50 (EKVX) | GI50 (SK-MEL-2) | GI50 (MCF7) | GI50 (SW-620) | GI50 (MOLT-4) | GI50 (NCI-H23) | GI50 (SR) | GI50 (SK-MEL-5) | GI50 (SF-295) | GI50 (UACC-62) | GI50 (OVCAR-3) | GI50 (MDA-MB-435) | GI50 (MDA-N) | GI50 (HOP-92) | GI50 (MDA-MB-231)
O=c1c(-c2ccccc2)c(SCCO)n(-c2ccccc2)c(=S)n1-c1ccccc1 | > 100 µM (inactive) | > 100 µM (inactive) | > 100 µM (inactive) | > 100 µM (inactive) | > 100 µM (inactive) | > 100 µM (inactive) | > 100 µM (inactive) | > 100 µM (inactive) | > 100 µM (inactive) | > 100 µM (inactive) | > 100 µM (inactive) | > 100 µM (inactive) | > 100 µM (inactive) | > 100 µM (inactive) | 39.7 µM (inactive) | > 100 µM (inactive) | > 100 µM (inactive) | > 100 µM (inactive) | – | –
COC(=O)/C(=N\NC(N)=O)C(C(=O)C=C(C)C)C(=O)C(=O)Nc1ccc(Cl)c(Cl)c1 (stereo not drawn) | > 100 µM (inactive) | > 100 µM (inactive) | > 100 µM (inactive) | > 100 µM (inactive) | > 100 µM (inactive) | > 100 µM (inactive) | > 100 µM (inactive) | – | > 100 µM (inactive) | > 100 µM (inactive) | > 100 µM (inactive) | > 100 µM (inactive) | > 100 µM (inactive) | > 100 µM (inactive) | > 100 µM (inactive) | > 100 µM (inactive) | – | – | – | –
C[C@]12CCC[C@H](OC=O)C1(O)C[C@H](C(=O)O)CC2 (stereo partly drawn) | > 100 µM (inactive) | > 100 µM (inactive) | > 100 µM (inactive) | > 100 µM (inactive) | > 100 µM (inactive) | 19.8 µM (inactive) | > 100 µM (inactive) | – | > 100 µM (inactive) | > 100 µM (inactive) | > 100 µM (inactive) | > 100 µM (inactive) | > 100 µM (inactive) | > 100 µM (inactive) | 16.5 µM (inactive) | > 100 µM (inactive) | – | – | > 100 µM (inactive) | –
COC(=O)/C(=N/NC(=O)C[N+](C)(C)C)C(C(=O)OC)C(=O)C(=O)Nc1ccc(F)cc1 (stereo not drawn) | > 100 µM (inactive) | > 100 µM (inactive) | > 100 µM (inactive) | > 100 µM (inactive) | > 100 µM (inactive) | > 100 µM (inactive) | > 100 µM (inactive) | – | > 100 µM (inactive) | > 100 µM (inactive) | > 100 µM (inactive) | > 100 µM (inactive) | > 100 µM (inactive) | > 100 µM (inactive) | > 100 µM (inactive) | > 100 µM (inactive) | – | – | – | –
COc1ccc(C(C#N)NNC(=O)Cc2ccccc2)cc1OC (stereo not drawn) | – | > 100 µM (inactive) | > 100 µM (inactive) | > 100 µM (inactive) | > 100 µM (inactive) | – | > 100 µM (inactive) | – | > 100 µM (inactive) | > 100 µM (inactive) | > 100 µM (inactive) | > 100 µM (inactive) | > 100 µM (inactive) | > 100 µM (inactive) | > 100 µM (inactive) | – | – | – | > 100 µM (inactive) | –
c1ccc(C(/C(=N/c2ccc(Cc3ccc(/N=C(\C(c4ccccc4)c4ccccc4)N4CC4)cc3)cc2)N2CC2)c2ccccc2)cc1 | 13.1 µM (inactive) | 3.27 µM (inactive) | < 0.01 µM (active) | 3.18 µM (inactive) | 14.3 µM (inactive) | 10.1 µM (inactive) | 7.01 µM (inactive) | 3.1 µM (inactive) | 6.3 µM (inactive) | – | 10.5 µM (inactive) | 1.31 µM (inactive) | 5.04 µM (inactive) | 9.31 µM (inactive) | 2.32 µM (inactive) | 3.66 µM (inactive) | 8.73 µM (inactive) | – | – | 12.2 µM (inactive)
O=C1CCc2cc(Br)ccc2O1 | 25 µM (inactive) | > 100 µM (inactive) | – | > 100 µM (inactive) | 92.9 µM (inactive) | 3.81 µM (inactive) | > 100 µM (inactive) | 12.6 µM (inactive) | > 100 µM (inactive) | > 100 µM (inactive) | 44.7 µM (inactive) | 83 µM (inactive) | 26.4 µM (inactive) | 34 µM (inactive) | > 100 µM (inactive) | > 100 µM (inactive) | > 100 µM (inactive) | > 100 µM (inactive) | 24.9 µM (inactive) | –
CC(=O)NC(ON1C(=O)COc2ccccc21)C(Cl)(Cl)Cl (stereo not drawn) | > 100 µM (inactive) | > 100 µM (inactive) | > 100 µM (inactive) | – | > 100 µM (inactive) | – | > 100 µM (inactive) | – | > 100 µM (inactive) | > 100 µM (inactive) | > 100 µM (inactive) | > 100 µM (inactive) | – | > 100 µM (inactive) | > 100 µM (inactive) | > 100 µM (inactive) | – | – | > 100 µM (inactive) | –
O=C(NCCNCCCNC(=O)c1cc(-c2ccccc2)nc2ccccc12)c1cccc(O)c1O | 2.1 µM (inactive) | 3.18 µM (inactive) | 6.11 µM (inactive) | 0.697 µM (active) | 1.95 µM (inactive) | 24.4 µM (inactive) | 2.8 µM (inactive) | 3.3 µM (inactive) | 4.47 µM (inactive) | 0.916 µM (active) | 6.14 µM (inactive) | – | 1.36 µM (inactive) | 1.84 µM (inactive) | 2.27 µM (inactive) | 2.38 µM (inactive) | 2.51 µM (inactive) | – | 14.9 µM (inactive) | 4.23 µM (inactive)
